According to US10280198B2, “Therapeutic agents for reducing parathyroid hormone levels” (KAI PHARMACEUTICALS, INC., priority 2009, dated 2019):
Counter-ions that a name gives are not always drawn.

Test system: plasma PTH
Assay: 1K1C rat model of acute renal insufficiency, plasma PTH after dosing
Type: in vivo
Conditions: 1K1C rats, oral 30 mg/kg

SMILES: C[C@@H](NCCCc1cccc(C(F)(F)F)c1)c1cccc2ccccc12 [cinacalcet, Cinacalcet hydrochloride]
- duration of PTH lowering: up to 6 hours
- lowering of PTH: approximately 50%
